Results as given in patent US8664216B2, “Spiro-5,6-dihydro-4H-2,3,5,10b-tetraaza-benzo[e]azulenes” (Hoffmann-La Roche Inc., priority 2008, dated 2014).
Where a name gives a salt, the structure may show the parent alone. Read-outs that look alike come from different tables or passages of the source.

Molecular target: T1, human V1a receptor (Homo sapiens, UniProt P37288)
T1 construct: expressed in transfected cells; host or cells: HEK293 cells, transiently transfected; membranes prepared
Experiment: human V1a receptor binding studies (3H-Vasopressin SPA, membranes of transfected HEK293 cells)
Experimental: The human V1a receptor was cloned by RT-PCR from total human liver RNA. The coding sequence was subcloned in an expression vector after sequencing to confirm the identity of the amplified sequence. […] Cell membranes were prepared from HEK293 cells transiently transfected with the expression vector and grown in 20 liter fermenters with the following protocol.
50 g of cells are resuspended in 30 ml freshly prepared ice cold Lysis buffer (50 mM HEPES, 1 mM EDTA, 10 mM MgCl2 adjusted to pH=7.4+complete cocktail of protease inhibitor (Roche Diagnostics)). Homogenized with Polytron for 1 min and sonicated on ice for 2×2 minutes at 80% intensity (Vibracell sonicator). The preparation is centrifuged 20 min at 500 g at 4° C., the pellet is discarded and the supernatant centrifuged 1 hour at 43,000 g at 4° C. (19,000 rpm). The pellet is resuspended in 12.5 ml Lysis buffer+12.5 ml Sucrose 20% and homogenized using a Polytron for 1-2 min. The protein concentration is determined by the Bradford method and aliquots are stored at −80° C. until use. For binding studies 60 mg Yttrium silicate SPA beads (Amersham) are mixed with an aliquot of membrane in binding buffer (50 mM Tris, 120 mM NaCl, 5 mM KCl, 2 mM CaCl2, 10 mM MgCl2) for 15 minutes with mixing. 50 μl of bead/membrane mixture is then added to each well of a 96 well plate, followed by 50 μl of 4 nM 3H-Vasopressin (American Radiolabeled Chemicals). For total binding measurement 100 μl of binding buffer are added to the respective wells, for non-specific binding 100 μl of […] cold vasopressin and for compound testing 100 μl of a serial dilution of each compound in 2% DMSO. The plate is incubated 1 h at room temperature, centrifuged 1 min at 1000 g and counted on a Packard Top-Count. Non-specific binding counts are subtracted from each well and data is normalized to the maximum specific binding set at 100%. To calculate an IC 50 the curve is fitted using a non-linear regression model (XLfit) and the Ki is calculated using the Cheng-Prussoff equation.

[1] = 3H-Vasopressin displacement, HEK293 cell membranes, Ki calculated from IC50 by Cheng-Prussoff equation, read-out: pKi hV1a (converted)

T1 sequence (P37288 whole entry): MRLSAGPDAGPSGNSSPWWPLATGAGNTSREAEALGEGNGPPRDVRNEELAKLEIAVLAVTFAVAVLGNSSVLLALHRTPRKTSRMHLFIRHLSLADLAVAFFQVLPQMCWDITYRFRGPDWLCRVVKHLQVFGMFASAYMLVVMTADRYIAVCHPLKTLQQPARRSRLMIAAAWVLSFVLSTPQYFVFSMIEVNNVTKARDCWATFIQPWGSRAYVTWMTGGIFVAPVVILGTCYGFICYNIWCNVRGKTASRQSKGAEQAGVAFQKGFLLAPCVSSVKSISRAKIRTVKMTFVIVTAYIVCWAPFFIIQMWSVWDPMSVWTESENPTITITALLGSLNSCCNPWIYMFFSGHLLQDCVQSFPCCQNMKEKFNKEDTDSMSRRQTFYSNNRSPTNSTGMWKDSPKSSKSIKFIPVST

Structure (SMILES) | Ki [nM] | Ki [1] [nM]
Clc1ccc2c(c1)CNCc1nnc([C@H]3CC[C@@]4(CC3)OCc3ccccc34)n1-2 [Example 2, 8-Chloro-1-[(1r,4′r)-3H-spiro[2-benzofuran-1,1′-cyclohexan]-4′-yl]-5,6-dihydro-4H-[1,2,4]triazolo[4,3-a][1,4]benzodiazepine hydrochloride] | 39.8 | 
CC1OC2(CCN(c3nnc4n3-c3ccc(Cl)cc3CN(C(=O)OC(C)(C)C)C4)CC2)c2ccccc21 (racemic) [Example 24, (RS)-tert-Butyl 8-chloro-1-(3-methyl-1′H,3H-spiro[2-benzofuran-1,4′-piperidin]-1′-yl)-4H-[1,2,4]triazolo[4,3-a][1,4]benzodiazepine-5(6H)-carboxylate] |  | 10.7
CN1Cc2cc(Cl)ccc2-n2c(nnc2[C@H]2CC[C@@]3(CC2)OCc2ccccc23)C1 [Example 3, 8-Chloro-5-methyl-1-[(1r,4′r)-3H-spiro[2-benzofuran-1,1′-cyclohexan]-4′-yl]-5,6-dihydro-4H-[1,2,4]triazolo[4,3-a][1,4]benzodiazepine] | 2.82 | 
CN1Cc2cc(Cl)ccc2-n2c(nnc2N2CCC3(CC2)SCc2ccccc23)C1 [Example 29] | 1.74 | 
CN1Cc2cc(Cl)ccc2-n2c(nnc2N2CCC3(CC2)c2ccccc2CS3(=O)=O)C1 [Example 31, 8-Chloro-1-(2,2-dioxido-1′H,3H-spiro[2-benzothiophene-1,4′-piperidin]-1′-yl)-5-methyl-5,6-dihydro-4H-[1,2,4]triazolo[4,3-a][1,4]benzodiazepine] | 47.9 | 
CN1Cc2cc(Cl)ccc2-n2c(nnc2N2CCC3(CC2)OCc2ccc(F)cc23)C1 [Example 19, 8-Chloro-1-(6-fluoro-1′H,3H-spiro[2-benzofuran-1,4′-piperidin]-1′-yl)-5-methyl-5,6-dihydro-4H-[1,2,4]triazolo[4,3-a][1,4]benzodiazepine] |  | 7.59
CC(=O)N1Cc2cc(Cl)ccc2-n2c(nnc2N2CCC3(CC2)OCc2ccccc23)C1 [Example 15] |  | 4.17
CN1Cc2cc(Cl)ccc2-n2c(nnc2N2CCC3(CC2)OCc2cccc(F)c23)C1 [Example 22, 8-Chloro-1-(7-fluoro-1′H,3H-spiro[2-benzofuran-1,4′-piperidin]-1′-yl)-5-methyl-5,6-dihydro-4H-[1,2,4]triazolo[4,3-a][1,4]benzodiazepine] |  | 3.98
CN1Cc2cc(Cl)ccc2-n2c(nnc2N2CCC3(CC2)COCc2ccccc23)C1 [Example 32, 1′-(8-Chloro-5-methyl-5,6-dihydro-4H-[1,2,4]triazolo[4,3-a][1,4]benzodiazepin-1-yl)-1H-spiro[isochromene-4,4′-piperidine]] | 2.19 | 
CC1OC2(CCN(c3nnc4n3-c3ccc(Cl)cc3CN(C)C4)CC2)c2ccccc21 (racemic) [Example 26, (RS)-8-Chloro-5-methyl-1-(3-methyl-1′H,3H-spiro[2-benzofuran-1,4′-piperidin]-1′-yl)-5,6-dihydro-4H-[1,2,4]triazolo[4,3-a][1,4]benzodiazepine] |  | 4.79
CN1Cc2cc(Cl)ccc2-n2c(nnc2N2CCC3(CC2)OCCc2ccccc23)C1 [Example 35, 1′-(8-Chloro-5-methyl-5,6-dihydro-4H-[1,2,4]triazolo[4,3-a][1,4]benzodiazepin-1-yl)-3,4-dihydrospiro[isochromene-1,4′-piperidine]] | 10.5 | 
CC(C)N1Cc2cc(Cl)ccc2-n2c(nnc2N2CCC3(CC2)OCc2ccccc23)C1 [Example 10, 8-Chloro-5-isopropyl-1-(1′H,3H-spiro[2-benzofuran-1,4′-piperidin]-1′-yl)-5,6-dihydro-4H-[1,2,4]triazolo[4,3-a][1,4]benzodiazepine] |  | 1.82
CC(C)(C)OC(=O)N1Cc2cc(Cl)ccc2-n2c(nnc2N2CCC3(CC2)OCc2ccccc23)C1 [Example 7, tert-Butyl 8-chloro-1-(1′H,3H-spiro[2-benzofuran-1,4′-piperidin]-1′-yl)-4H-[1,2,4]triazolo[4,3-a][1,4]benzodiazepine-5(6H)-carboxylate] |  | 4.47
CN1Cc2cc(Cl)ccc2-n2c(nnc2N2CCC[C@@]3(CC2)OCc2ccccc23)C1 [Example 36, (+)-1-(8-Chloro-5-methyl-5,6-dihydro-4H-[1,2,4]triazolo[4,3-a][1,4]benzodiazepin-1-yl)-3′H-spiro[azepane-4,1′-[2]benzofuran]] |  | 1.45
CN1Cc2cc(Cl)ccc2-n2c(nnc2N2CCC3(CC2)OC(=O)c2ccccc23)C1 [Example 27, 1′-(8-Chloro-5-methyl-5,6-dihydro-4H-[1,2,4]triazolo[4,3-a][1,4]benzodiazepin-1-yl)-3H-spiro[2-benzofuran-1,4′-piperidin]-3-one] | 12.3 | 
CN1Cc2cc(Cl)ccc2-n2c(nnc2N2CCC[C@]3(CC2)OCc2ccccc23)C1 [Example 37, (−)-1-(8-Chloro-5-methyl-5,6-dihydro-4H-[1,2,4]triazolo[4,3-a][1,4]benzodiazepin-1-yl)-3′H-spiro[azepane-4,1′-[2]benzofuran]] |  | 5.01
CC(C)(C)OC(=O)N1Cc2cc(Cl)ccc2-n2c(nnc2N2CCC3(CC2)OCc2ccc(F)cc23)C1 [Example 17, tert-Butyl 8-chloro-1-(6-fluoro-1′H,3H-spiro[2-benzofuran-1,4′-piperidin]-1′-yl)-4H-[1,2,4]triazolo[4,3-a][1,4]benzodiazepine-5(6H)-carboxylate] |  | 10.2
Clc1ccc2c(c1)CN(Cc1ccccn1)Cc1nnc(N3CCC4(CC3)OCc3ccccc34)n1-2 [Example 12, 8-Chloro-5-(pyridin-2-ylmethyl)-1-(1′H,3H-spiro[2-benzofuran-1,4′-piperidin]-1′-yl)-5,6-dihydro-4H-[1,2,4]triazolo[4,3-a][1,4]benzodiazepine] | 1.82 | 
CC(C)(C)OC(=O)N1Cc2cc(Cl)ccc2-n2c(nnc2[C@H]2CC[C@@]3(CC2)OCc2ccccc23)C1 [Example 1, tert-Butyl 8-chloro-1-[(1r,4′r)-3H-spiro[2-benzofuran-1,1′-cyclohexan]-4′-yl]-4H-[1,2,4]triazolo[4,3-a][1,4]benzodiazepine-5(6H)-carboxylate] | 4.57 | 
CN1Cc2cc(Cl)ccc2-n2c(nnc2N2CCC3(CC2)OCc2ccccc23)C1 [Example 9, 8-Chloro-5-methyl-1-(1′H,3H-spiro[2-benzofuran-1,4′-piperidin]-1′-yl)-5,6-dihydro-4H-[1,2,4]triazolo[4,3-a][1,4]benzodiazepine] | 2.4 | 
CN1Cc2cc(Cl)ccc2-n2c(nnc2N2CCC3(CC2)OCc2cc(F)ccc23)C1 [Example 23, 8-Chloro-1-(5-fluoro-1′H,3H-spiro[2-benzofuran-1,4′-piperidin]-1′-yl)-5-methyl-5,6-dihydro-4H-[1,2,4]triazolo[4,3-a][1,4]benzodiazepine] |  | 2.09
Clc1ccc2c(c1)CNCc1nnc([C@H]3CC[C@]4(CC3)OCc3ccccc34)n1-2 [Example 5, 8-Chloro-1-[(1s,4′s)-3H-spiro[2-benzofuran-1,1′-cyclohexan]-4′-yl]-5,6-dihydro-4H-[1,2,4]triazolo[4,3-a][1,4]benzodiazepine hydrochloride] | 16.2 | 
CN(C)CC(=O)N1Cc2cc(Cl)ccc2-n2c(nnc2N2CCC3(CC2)OCc2ccccc23)C1 [Example 16, 2-[8-Chloro-1-(1′H,3H-spiro[2-benzofuran-1,4′-piperidin]-1′-yl)-4H-[1,2,4]triazolo[4,3-a][1,4]benzodiazepin-5(6H)-yl]-N,N-dimethyl-2-oxoethanamine] |  | 6.76
